We go through two compounds from patent US11076597B2, “High stress resistant plant growth regulator and preparation method and use thereof” (SHANGHAI INSTITUTES FOR BIOLOGICAL SCIENCES, CHINESE …, priority 2015, dated 2021).

Molecules are shown by their SMILES. “Also recorded” adds a separate entry of the source.

The target of test [1] is T1, rice OsPYL2 + Arabidopsis AtHAB1 (Oryza sativa subsp. japonica, UniProt Q5Z8S0).
T1 construct: made in house; host or cells: E. coli BL21 (DE3)
T1 sequence (Q5Z8S0 1-207): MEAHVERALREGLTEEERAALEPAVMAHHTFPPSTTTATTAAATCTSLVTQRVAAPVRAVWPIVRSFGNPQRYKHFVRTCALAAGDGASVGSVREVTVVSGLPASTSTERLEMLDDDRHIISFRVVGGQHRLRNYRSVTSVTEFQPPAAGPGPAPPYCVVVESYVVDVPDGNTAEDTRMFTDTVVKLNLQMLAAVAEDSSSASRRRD
T1 sequence (Q9CAJ0 172-511 partner limits assumed): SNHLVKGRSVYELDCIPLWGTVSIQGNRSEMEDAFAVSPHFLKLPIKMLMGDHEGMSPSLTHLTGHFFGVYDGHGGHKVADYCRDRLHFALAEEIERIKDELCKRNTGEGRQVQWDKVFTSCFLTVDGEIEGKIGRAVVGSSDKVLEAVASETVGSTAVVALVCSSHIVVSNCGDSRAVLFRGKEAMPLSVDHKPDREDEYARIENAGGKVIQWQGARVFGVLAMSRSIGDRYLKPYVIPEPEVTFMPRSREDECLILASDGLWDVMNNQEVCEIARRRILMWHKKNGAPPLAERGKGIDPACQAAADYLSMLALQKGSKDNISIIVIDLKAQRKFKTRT
Put plainly: AlphaScreen assay: promotion of the interaction of rice OsPYL2 with Arabidopsis HAB1. The class given is binding, rice (OsPYL2); Arabidopsis thaliana (HAB1). The following applies: FIG. 13b; 6×His-SUMO-tagged rice OsPYL2, Biotin-tagged Arabidopsis HAB1 (aa 172-511), 100 nM each; pH 7.4; 1.5 h room temperature. An excerpt: Compound 0428 can promote the interaction of the Arabidopsis protein phosphatase HAB1 with soybean GmPYL6 or rice OsPYL2, and this interaction is dose-dependent.
The construction method of recombinant plasmids for the Arabidopsis thaliana genes PYL1 (amino acid sequence 36-211), PYL2 (amino acid sequence 14-188) with dual tags of 6×His and SUMO sequence and the Arabidopsis thaliana gene HAB1 (amino acid sequence 172-511) with the Biotin tag sequence is described in detail in “A gate-latch-lock mechanism for hormone signaling by abscisic acid receptors” (Nature, Vol 462, 2009). The construction method of recombinant plasmids for PYR1 and PYL7 (whole gene coding sequence) and Soybean GmPYL6 and rice OsPYL2 with dual tags of 6×His and SUMO sequence is the same as that for Arabidopsis PYL2.
The above recombinant plasmid is transformed into competent cell of E. coli BL21 (DE3) (purchased from NEB company), and inoculated into 200 ml of LB liquid medium containing Amp resistance (purchased from OXOID company) and cultured overnight at 37° C. at 200 rpm; and inoculated into 2 L of LB liquid medium containing Amp resistance at a ratio of 1:50-1:100 for an extended culture, and cultured at 37° C., 200 rpm for 3-4 hours, and at a low temperature of 16° C. until OD600 is about 0.8-1.0. […]
For orientation: Alpha assays give light when donor and acceptor beads are brought close together.

The test system of test [2] is PYL receptor triple mutant (pyr1;pyl1;pyl4) seeds. Put plainly: Seed germination, PYL receptor triple mutant. It counts as in vivo, Arabidopsis thaliana. The following applies: 1 μM in 1/2 MS solid medium, 6 days after sowing; FIG. 3. How it is done: Take the compounds 0428 and 0224 of the present invention as examples. The seeds of Arabidopsis thaliana Col-0 ecotype and PYL receptor triple mutant (pyr1;pyl1;pyl4) were sterilized with NaClO and placed at 4° C. for 3 days of the vernalization, and then sown in ½ MS solid medium containing 1 μM (+)-ABA/0224 compound or 0.05% DMSO (control) or in ½ MS solid medium containing 2 μM (+)-ABA/compound 0428 of the present invention or 0.05% DMSO (control). Two lines of plant were sown simultaneously on each medium of 6 cm diameter, with 15-20 seeds sown for each line and 4 replicates for each compound. Culture medium was placed at 22° C. with long-day culture. The seeds germinated on a solid medium containing 1 μM (+)-ABA/0224 compound were photographed 6 days after sowing, and seeds germinated on solid medium containing 2 μM (+)-ABA/0428 compound were photographed 9 days after sowing.

On to `CC1=CC(=O)CC(C)(C)[C@@]1(O)/C=C/C(C)=C\C(=O)O` [ABA, Abscisic Acid, reference compound], for which the EC50 – broadly, the concentration at which the effect is half-maximal – in test [1] was 0.149 µM.

Take `CCCN1C(=O)OC(C)c2cc(NS(=O)(=O)Cc3c(F)c(F)c(C)c(F)c3F)ccc21` (centres unmarked) [Compound 0224]: the “inhibition of seed germination of pyr1;pyl1;pyl4 triple mutant” value in test [2] was “significantly reduced; also recorded: could not inhibit the seed germination of PYR/PYL triple mutant”.
